Measured values published in publication PMC11975549, “Development of Potent Type V MAPK Inhibitors: Design, Synthesis, and Biological Evaluation of Benzothiazole Derivatives Targeting p38α MAPK in Breast Cancer Cells” (Archiv Der Pharmazie, 2025).
Values joined by “and” are separate entries in the source; they are usually repeats but may differ in a detail not shown here. Equal entries are not always repeated. Where two headings read alike, the source gives them in different places.

Legend:
[1] = tested on: p38α MAPK; settings: cited from earlier work
[2] = tested on: MCF7 cells; test: MTT antiproliferative assay, MCF7; assay type: cell-based, human; settings: for IC50: MTT, 24 h incubation; for Selectivity MCF7: Selectivity index = L929 IC50 / MCF7 IC50 (24 h)
Protocol: (§1) Cell culture experiments were performed to assess the antiproliferative efficacy of the synthesized benzothiazole compounds on the MCF7 and MDA‐MB‐231 cell lines. The anticancer activity of the compounds were compared with the L929 healthy cell line as a control. Doxorubicin and cisplatin, the anticancer agents, were employed as positive controls.
(§2) Human epithelial breast adenocarcinoma (MDA‐MB‐231) (ATCC® HTB‐26™), human epithelial breast adenocarcinoma (MCF7) (ATCC® HTB‐22™), and healthy mouse fibroblast (L929) (ATCC® CRL‐10317™) cells were obtained commercially from ATCC.
(§3) MDA‐MB‐231, MCF7, and L929 cells were seeded in 25 cm² flasks. DMEM medium containing 10% FBS, 1% Penicillin‐Streptomycin, L‐Glutamine, and NaHCO₃ was used as the cell culture medium. The cells were incubated and propagated at 37°C in an environment containing 5% CO₂ and 95% humidity. When the cells reached 80%–90% confluency, they were passaged to different media. During passaging, DMEM was first withdrawn, and the cells were washed with PBS to remove FBS from the medium. Then, Trypsin‐EDTA solution was added to the flask to detach the cells, and the flask was kept in a CO₂ incubator for approximately 1 min. To stop the activity of Trypsin‐EDTA medium containing FBS was added to the flask. The cells were collected into a Falcon tube and centrifuged at 800 rpm for 5 min at room temperature. The supernatant was discarded, and the cell pellet was resuspended in the medium and seeded on cell culture plates according to the experimental protocol.
(§4) A total of 2 mg of each compound was dissolved in an appropriate amount of dimethyl sulfoxide (DMSO) to prepare 10 mM stock solutions. These stock solutions were then diluted to create 100 μM intermediate stocks and stored at −80°C. Commercially purchased cisplatin and doxorubicin HCl (Sigma, St. Louis, MO) were dissolved in DMSO following the manufacturer's protocol to create 20 mM stock solutions. These standard drug molecules were diluted from the stock solution, divided into 100 μM aliquots, and stored at –80°C until use.
(§5) MTT analysis was performed to evaluate the in vitro cytotoxicity of the synthesized compounds against different cancer cell lines. Cells used in the cytotoxicity experiments were cultured in DMEM medium supplemented with 10% FBS. Cells suspended in the medium (2 × 10⁴ cells/mL) were seeded into 96‐well culture plates and incubated at 37°C in a 5% CO₂ incubator. After 12 h, compounds were added at different doses (2 µL) to cells (2 × 10⁴) in the 96‐well plates and incubated at 37°C for 24 h.
(§6) The incubated cells were then treated with 20 µL of MTT solution and incubated at 37°C for 4 h. The supernatant was carefully removed from each well, and 100 µL of DMSO was added to each well to dissolve the formazan crystals formed by the cellular reduction of MTT. The absorbance was measured at 570 nm using an ELISA reader. […] At the end of the experiment, the device calculated the IC50 value for each well, and the average values were recorded. Each experiment was performed in at least three replicates.

[3] = tested on: MDA‐MB‐231 cells; test: MTT antiproliferative assay, MDA-MB-231; assay type: cell-based, human; settings: for IC50: MTT, 24 h incubation; for Selectivity MDA‐MB‐231: Selectivity index = L929 IC50 / MDA‐MB‐231 IC50 (24 h)
Protocol: as §1, §2, §3, §4, §5, §6

[4] = tested on: L929 cells; test: MTT cytotoxicity assay, L929 healthy cells; assay type: cell-based; settings: healthy mouse fibroblast
Protocol: as §1, §2, §3, §4, §5, §6

[5] = tested on: p38 MAPKα; test: p38 MAPK alpha ELISA, total level in treated MCF7 cells normalised to total protein (BCA); assay type: cell-based, human; settings: MCF7 cells exposed to compound
Source text: To account for variations in protein quantities among the cells. The total protein concentrations in cells subjected to the drugs were quantified. The p38 MAPKα levels were adjusted by dividing by the protein levels, yielding results represented as ng/μg protein (Table 3).
A bicinchoninic acid (BCA) protein assay kit (catalog no. 23227) was obtained from Thermo‐Fisher Scientific (IL, USA) and used to detect total protein by the BCA assay. In this assay, the reaction between BCA, Cu²⁺ ions, and Cu⁺ ions form a purple complex in alkaline conditions. The absorbance of this complex was measured at 562 nm, and the results were expressed in mg/mL.
The p38 MAPK alpha ELISA Kit (ab221012; Abcam, Cambridge, MA) was used to measure the levels of […] in cell lysates according to the manufacturer's instructions. The SimpleStep Enzyme‐Linked Immunosorbent Assay (ELISA) kit was designed to assess total p38 MAPKα protein semi‐quantitatively. The SimpleStep ELISA uses a reporter‐conjugated detection antibody, and an affinity‐tag labeled capture antibody to immunocapture the sample analyte in solution. An anti‐tag antibody coating the well immobilizes the entire complex (capture antibody, analyte, and detection antibody).
Samples or controls were added to the wells, followed by the Antibody Cocktail to complete the test. After incubation, the wells were washed to remove unbound material. […] The levels of MAPK were normalized to total protein content.

[6] = tested on: MCF7 cell line; design: method as in PMID 30792101; settings: MTT assay; cited from earlier work
[7] = tested on: MDA‐MB‐231 cell line; design: method as in PMID 30792101; settings: MTT assay; cited from earlier work

SMILES	IC50 ([2]; Homo sapiens, MCF7)	Selectivity MCF7 [2]	IC50 ([3]; Homo sapiens, MDA-MB-231)	Selectivity MDA‐MB‐231 [3]	IC50 ([4]; L929, 24 h incubation)	Total p38α MAPK levels [5]	other results
COc1cccc(-c2nn(-c3ccccc3)cc2-c2ccncc2)c1 [Compound 4d]							IC50 ([1]; relative selectivity in comparison to 15 other kinases, read-out: IC50 p38α): 0.515 µM
COc1c(-c2cc(-c3ccc(C)o3)c(C#N)c(N)n2)c(O)c(Br)c2occc12 [Compound 6f]							IC50 ([1]; read-out: IC50 p38α MAP kinase): 0.04 µM
Cc1ccc(C(=O)Nc2nc3ccccc3s2)cc1 [Compound 8, N‐(Benzo[d]thiazol‐2‐yl)‐4‐methylbenzamide]	4.69 ± 0.05 µM	1.373	5.2 ± 0.19 µM	1.238	6.44 ± 0.05 µM	9.541 ± 0.099 ng/μg protein	
COc1c(-c2cc(-c3ccc(F)cc3)c(C#N)c(=N)[nH]2)c(O)c(Br)c2occc12 [Compound 8h]							IC50 ([1]; read-out: IC50 p38α MAPK): 0.27 µM
O=C(Nc1nc2ccccc2s1)c1ccc(Cl)cc1 [Compound 9, N‐(Benzo[d]thiazol‐2‐yl)‐4‐chlorobenzamide]	3.49 ± 0.32 µM	1.842	6.02 ± 0.18 µM	1.068	6.43 ± 0.05 µM	0.166 ± 0.015 ng/μg protein	
COc1c(C(=O)/C=C/c2ccc(C)o2)c(O)c(Br)c2occc12 [Compound 9i]							IC50 ([1]; read-out: IC50 p38α MAP kinase): 0.04 µM; IC50 [6]: 1.35 µM; IC50 [7]: 2.09 µM
O=C(NCc1nc2ccccc2s1)c1ccccc1 [Compound 10, N‐(Benzo[d]thiazol‐2‐ylmethyl) benzamide]	5.64 ± 0.34 µM	7.238	13.5 ± 0.54 µM	3.019	40.82 ± 0.12 µM	0.535 ± 0.079 ng/μg protein	
CCNC(=O)c1ccc(C)c(NC(=O)c2ccc3c(-c4ccc(Cl)cc4)n[nH]c3c2)c1 [Compound 11k, 3‐(4‐chlorophenyl)‐N‐(5‐(ethylcarbamoyl)‐2‐methylphenyl)‐1H‐indazole‐6‐carboxamide]							IC50 ([1]; read-out: IC50 p38α MAPK): 3.37 ± 0.24 µM
Clc1cccc(Cl)c1Nc1ccccc1Cc1nncn1Nc1nc2ccccc2s1 [Compound 12l]							IC50 ([1]; read-out: IC50 p38α MAPK): 0.036 µM
O=C(CSc1nnc(COc2ccccc2)n1-c1ccc(F)cc1)Nc1nc2ccccc2s1 [Compound 13m]							IC50 ([1]; read-out: IC50 p38α MAPK): 0.031 µM
O=C(NCc1nc2ccccc2s1)c1cccs1 [Compound 14, N‐(Benzo[d]thiazol‐2‐ylmethyl) thiophene‐2‐carboxamide]	10.6 ± 0.16 µM	2.096	16 ± 0.68 µM	1.391	22.2 ± 0.68 µM	0.199 ± 0.011 ng/μg protein	
O=C(NCc1nc2ccccc2s1)c1ccco1 [Compound 15, N‐(Benzo[d]thiazol‐2‐ylmethyl) furan‐2‐carboxamide]	8.83 ± 0.43 µM	3.031	11.78 ± 0.11 µM	2.272	26.8 ± 0.84 µM	0.155 ng/μg protein and 0.155 ± 0.045 ng/μg protein	
COc1ccc(C(=O)NCc2nc3ccccc3s2)cc1 [Compound 17, N‐(Benzo[d]thiazol‐2‐ylmethyl)‐4‐methoxybenzamide]	11.1 ± 0.23 µM	2.271	16.7 ± 0.36 µM	1.499	25.09 ± 0.18 µM	6.411 ± 1.604 ng/μg protein	
Cc1ccc(C(=O)NCc2nc3ccccc3s2)cc1 [Compound 18, N‐(Benzo[d]thiazol‐2‐ylmethyl)‐4‐methylbenzamide]	11.2 ± 0.75 µM	2.604	20.2 ± 0.73 µM	1.442	29.1 ± 0.52 µM	1.34 ± 0.154 ng/μg protein	
O=C(Cc1ccccc1)Nc1nc2ccccc2s1 [Compound 19, N‐(Benzo[d]thiazol‐2‐yl)‐2‐phenylacetamide]	6.19 ± 1.05 µM	15.171	10.74 ± 0.03 µM	8.744	93.9 ± 1.9 µM	0.112 ng/μg protein and 0.112 ± 0.001 ng/μg protein	
COc1cccc(CC(=O)Nc2nc3ccccc3s2)c1 [Compound 21, N‐(Benzo[d]thiazol‐2‐yl)‐2‐(3‐methoxyphenyl) acetamide]		9.354		10.330		1.333 ± 0.007 ng/μg protein	IC50 [2]: 7.09 ± 0.02 µM; IC50 [3]: 6.42 ± 0.07 µM; IC50 ([4]; 24 h incubation): 66.3 ± 1.82 µM
O=C(Cc1ccc(F)cc1)Nc1nc2ccccc2s1 [Compound 22, N‐(Benzo[d]thiazol‐2‐yl)‐2‐(4‐fluorophenyl) acetamide]		41.697		55.413		3.952 ± 0.311 ng/μg protein	IC50 [2]: 5.05 ± 0.01 µM; IC50 [3]: 3.8 ± 0.28 µM; IC50 ([4]; 24 h incubation): 210.6 ± 1.67 µM
O=C(Cc1ccc(Cl)cc1)Nc1nc2ccccc2s1 [Compound 23, N‐(Benzo[d]thiazol‐2‐yl)‐2‐(4‐chlorophenyl) acetamide]		6.550		7.666		2.331 ± 1.241 ng/μg protein	IC50 [2]: 8.24 ± 0.19 µM; IC50 [3]: 7.04 ± 0.18 µM; IC50 ([4]; 24 h incubation): 54 ± 1.08 µM
O=C(Cc1cccs1)NCc1nc2ccccc2s1 [Compound 28, N‐(Benzo[d]thiazol‐2‐ylmethyl)‐2‐(thiophen‐2‐yl) acetamide]		2.794		1.655		2.542 ± 0.228 ng/μg protein	IC50 [2]: 11.1 ± 0.37 µM; IC50 [3]: 18.8 ± 0.23 µM; IC50 ([4]; 24 h incubation): 31 ± 0.33 µM
CS(=O)(=O)CCNCc1ccc(-c2ccc3ncnc(Nc4ccc(OCc5cccc(F)c5)c(Cl)c4)c3c2)o1 [lapatinib]							IC50 [6]: 4.69 µM; IC50 [7]: 4.69 µM
